Measurements as given in US10570116B2, “1,4-dicarbonyl-piperidyl derivatives” (Merck Patent GmbH, priority 2015, dated 2020).

Columns and labels:
Tankyrases = assay: Measurement of cellular inhibition of Tankyrase (Axin2 level, Luminex based assay, DLD1 cells); type: cell-based; conditions: increase of Axin2 level, 24 hours, read-out: EC50 [M] TNKS cellular assay
PARP-1 = PARP-1 (Homo sapiens (Human), UniProt P09874); assay: Biochemical activity testing of PARP-1: autoparsylation assay (HTRF); conditions: His-tagged Parp-1, autoparsylation HTRF
PARP-1, sequence (P09874 whole entry, the tested form may be a part): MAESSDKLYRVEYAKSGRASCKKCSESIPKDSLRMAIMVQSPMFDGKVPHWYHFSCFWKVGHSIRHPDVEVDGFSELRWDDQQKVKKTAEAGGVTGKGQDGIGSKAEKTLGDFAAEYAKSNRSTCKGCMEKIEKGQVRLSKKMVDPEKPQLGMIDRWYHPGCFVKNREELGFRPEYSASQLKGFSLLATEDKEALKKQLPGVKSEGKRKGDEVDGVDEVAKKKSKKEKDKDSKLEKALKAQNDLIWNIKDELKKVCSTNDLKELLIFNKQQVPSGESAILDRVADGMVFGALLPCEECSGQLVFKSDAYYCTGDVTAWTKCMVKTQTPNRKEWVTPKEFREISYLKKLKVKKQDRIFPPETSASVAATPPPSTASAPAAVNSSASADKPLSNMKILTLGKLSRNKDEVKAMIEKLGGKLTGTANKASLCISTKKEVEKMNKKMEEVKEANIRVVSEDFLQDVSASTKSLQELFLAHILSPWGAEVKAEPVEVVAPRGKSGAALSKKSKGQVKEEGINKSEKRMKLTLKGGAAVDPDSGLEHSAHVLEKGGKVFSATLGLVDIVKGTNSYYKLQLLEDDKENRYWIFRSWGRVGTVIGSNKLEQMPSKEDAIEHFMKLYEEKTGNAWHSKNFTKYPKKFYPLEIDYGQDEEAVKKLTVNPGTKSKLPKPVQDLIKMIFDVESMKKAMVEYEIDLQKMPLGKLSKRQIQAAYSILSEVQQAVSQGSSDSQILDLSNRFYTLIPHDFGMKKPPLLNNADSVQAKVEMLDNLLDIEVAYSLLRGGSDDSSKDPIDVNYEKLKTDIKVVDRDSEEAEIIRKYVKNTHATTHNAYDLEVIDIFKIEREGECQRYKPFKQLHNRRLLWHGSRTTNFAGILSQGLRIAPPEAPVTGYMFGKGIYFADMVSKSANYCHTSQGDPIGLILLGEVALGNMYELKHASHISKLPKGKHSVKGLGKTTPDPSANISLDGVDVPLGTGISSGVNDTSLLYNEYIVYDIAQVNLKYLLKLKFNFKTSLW

TNKS1 = TNKS1 (Homo sapiens (Human), UniProt O95271); assay: biochemical; type: biochemical; conditions: GST-tagged Tnks-1 (1023-1327 aa); read-out: IC50 [M] TNKS1 ELISA
TNKS2 = TNKS2 (Homo sapiens (Human), UniProt Q9H2K2); assay: biochemical; type: biochemical; conditions: GST-tagged Tnks-2 (873-1166 aa); read-out: IC50 [M] TNKS2 ELISA

Row | SMILES | EC50 (Tankyrases) | IC50 (PARP-1) | IC50 (TNKS1) | IC50 (TNKS2)
1 | Cn1cc(C(=O)C2CCN(C(=O)CC(C)(C)Cc3nc4c(ccn4C)c(=O)[nH]3)CC2)cn1 [Compound C17, 2-{2,2-Dimethyl-4-[4-(1-methyl-1H-pyrazole-4-carbonyl)-piperidin-1-yl]-4-oxo-butyl}-7-methyl-3,7-dihydro-pyrrolo[2,3-d]pyrimidin-4-one] | 6.9e-09 M | > 30000 nM | 4.7e-10 M | 3.3e-10 M
2 | CCn1cc(C(=O)C2CCN(C(=O)CC(C)(C)Cc3nc4c(ccn4C)c(=O)[nH]3)CC2)cn1 [Compound C18, 2-{4-[4-(1-Ethyl-1H-pyrazole-4-carbonyl)-piperidin-1-yl]-2,2-dimethyl-4-oxo-butyl}-7-methyl-3,7-dihydro-pyrrolo[2,3-d]pyrimidin-4-one] | 2.8e-09 M | > 30000 nM | 5.8e-10 M | 3.6e-10 M
3 | Cn1cc(C(=O)C2CCN(C(=O)CC(C)(C)Cc3nc4c(cnn4C)c(=O)[nH]3)CC2)cn1 [Compound C20, 6-{2,2-Dimethyl-4-[4-(1-methyl-1H-pyrazole-4-carbonyl)-piperidin-1-yl]-4-oxo-butyl}-1-methyl-1,5-dihydro-pyrazolo[3,4-d]pyrimidin-4-one] | 1.9e-08 M | > 30000 nM | 9.2e-10 M | 7.3e-10 M
4 | COC(=O)c1ccc(C(=O)C2CCN(C(=O)CC(C)(C)Cc3nc4ccccc4c(=O)[nH]3)CC2)cc1 [Compound C32, 4-{1-[3,3-Dimethyl-4-(4-oxo-3,4-dihydro-quinazolin-2-yl)-butyryl]-piperidine-4-carbonyl}-benzoic Acid Methyl Ester] | 1.1e-07 M |  | 6.8e-10 M | 5.6e-10 M
5 | CC(C)(CC(=O)N1CCC(C(=O)c2ccc(C(=O)O)cc2)CC1)Cc1nc2ccccc2c(=O)[nH]1 [Compound C33, 4-{1-[3,3-Dimethyl-4-(4-oxo-3,4-dihydro-quinazolin-2-yl)-butyryl]-piperidine-4-carbonyl}-benzoic Acid] | 1.5e-07 M |  | 5.1e-10 M | 4.5e-10 M
6 | COC(=O)c1cccc(C(=O)C2CCN(C(=O)CC(C)(C)Cc3nc4ccccc4c(=O)[nH]3)CC2)c1 [Compound C34, 3-{1-[3,3-Dimethyl-4-(4-oxo-3,4-dihydro-quinazolin-2-yl)-butyryl]-piperidine-4-carbonyl}-benzoic Acid Methyl Ester] | 9.9e-09 M |  | 4.8e-10 M | 5e-10 M
7 | COC(=O)c1cccc(C(=O)C2CCN(C(=O)CC(C)(C)Cc3nc4c(C)cccc4c(=O)[nH]3)CC2)c1 [Compound C36, 3-{1-[3,3-Dimethyl-4-(8-methyl-4-oxo-3,4-dihydro-quinazolin-2-yl)-butyryl]-piperidine-4-carbonyl}-benzoic acid methyl ester] | 3.4e-09 M |  | 7.9e-10 M | 2.1e-09 M
8 | COC(=O)c1ccc(C(=O)C2CCN(C(=O)CC(C)(C)Cc3nc4ccccc4c(=O)[nH]3)CC2)cc1C [Compound C38, 4-{1-[3,3-Dimethyl-4-(4-oxo-3,4-dihydro-quinazolin-2-yl)-butyryl]-piperidine-4-carbonyl}-2-methyl-benzoic Acid Methyl Ester] | 9.9e-10 M |  | 5.8e-10 M | 3.2e-10 M
9 | Cc1cc(C(=O)C2CCN(C(=O)CC(C)(C)Cc3nc4ccccc4c(=O)[nH]3)CC2)ccc1C(=O)O [Compound C39, 4-{1-[3,3-Dimethyl-4-(4-oxo-3,4-dihydro-quinazolin-2-yl)-butyryl]-piperidine-4-carbonyl}-2-methyl-benzoic Acid] | 1.3e-07 M |  | 4.3e-10 M | 6.1e-10 M
10 | COC(=O)c1ccc(C(=O)C2CCN(C(=O)CC(C)(C)Cc3nc4c(C)cccc4c(=O)[nH]3)CC2)cc1C [Compound C40, 4-{1-[3,3-Dimethyl-4-(8-methyl-4-oxo-3,4-dihydro-quinazolin-2-yl)-butyryl]-piperidine-4-carbonyl}-2-methyl-benzoic Acid Methyl Ester] | 2.9e-09 M |  | 1.5e-09 M | 4.7e-09 M
11 | Cc1cc(C(=O)C2CCN(C(=O)CC(C)(C)Cc3nc4c(C)cccc4c(=O)[nH]3)CC2)ccc1C(=O)O [Compound C41, 4-{1-[3,3-Dimethyl-4-(8-methyl-4-oxo-3,4-dihydro-quinazolin-2-yl)-butyryl]-piperidine-4-carbonyl}-2-methyl-benzoic Acid] | 1.1e-08 M |  | 5.9e-10 M | 8.8e-10 M
12 | Cc1cc(F)cc2c(=O)[nH]c(C[C@@H](C)CC(=O)N3CCC(C(=O)c4cccc(C(=O)O)c4)CC3)nc12 [Compound C46, 3-{1-[(R)-4-(6-Fluoro-8-methyl-4-oxo-3,4-dihydro-quinazolin-2-yl)-3-methyl-butyryl]-piperidine-4-carbonyl}-benzoic Acid] | 1e-05 M |  | 8.2e-09 M | 2.8e-09 M
13 | Cc1cc(F)cc2c(=O)[nH]c(C[C@H](C)CC(=O)N3CCC(C(=O)c4cccc(C(=O)O)c4)CC3)nc12 [Compound C47, 3-{1-[(S)-4-(6-Fluoro-8-methyl-4-oxo-3,4-dihydro-quinazolin-2-yl)-3-methyl-butyryl]-piperidine-4-carbonyl}-benzoic Acid] | 3e-09 M |  | 3.5e-10 M | 2.2e-10 M
14 | CN(C)Cc1ccc(C(=O)C2CCN(C(=O)CC(C)(C)Cc3nc4ccccc4c(=O)[nH]3)CC2)cc1 [Compound C48, 2-{4-[4-(4-Dimethylaminomethyl-benzoyl)-piperidin-1-yl]-2,2-dimethyl-4-oxo-butyl}-3H-quinazolin-4-one] | 1.3e-07 M |  | 1.4e-08 M | 5.3e-09 M
15 | Cn1cc(C(=O)C2CCN(C(=O)CC(C)(C)Cc3cc4ccccc4c(=O)[nH]3)CC2)cn1 [Compound C49, 3-{2,2-Dimethyl-4-[4-(1-methyl-1H-pyrazole-4-carbonyl)-piperidin-1-yl]-4-oxo-butyl}-2H-isoquinolin-1-one] | 1.3e-09 M |  | 3e-10 M | 2.1e-10 M
16 | C[C@H](CC(=O)N1CCC(C(=O)c2cnn(C)c2)CC1)Cc1cc2ccccc2c(=O)[nH]1 [Compound C50, 3-{(S)-2-Methyl-4-[4-(1-methyl-1H-pyrazole-4-carbonyl)-piperidin-1-yl]-4-oxo-butyl}-2H-isoquinolin-1-one] | 6.8e-10 M |  | 4.4e-10 M | 2.4e-10 M
17 | C[C@@H](CC(=O)N1CCC(C(=O)c2cnn(C)c2)CC1)Cc1cc2ccccc2c(=O)[nH]1 [Compound C51, 3-{(R)-2-Methyl-4-[4-(1-methyl-1H-pyrazole-4-carbonyl)-piperidin-1-yl]-4-oxo-butyl}-2H-isoquinolin-1-one] | 1.2e-08 M |  | 1e-09 M | 7.2e-10 M
18 | CC(C)(CC(=O)N1CCC(C(=O)c2ccc(C(=O)O)cc2)CC1)Cc1cc2ccccc2c(=O)[nH]1 [Compound C52, 4-{1-[3,3-Dimethyl-4-(1-oxo-1,2-dihydro-isoquinolin-3-yl)-butyryl]-piperidine-4-carbonyl}-benzoic Acid] | 8e-08 M |  | 3.3e-10 M | 2.5e-10 M
19 | CC(C)(CC(=O)N1CCC(C(=O)c2cccc(C(=O)O)c2)CC1)Cc1cc2ccccc2c(=O)[nH]1 [Compound C53, 3-{1-[3,3-Dimethyl-4-(1-oxo-1,2-dihydro-isoquinolin-3-yl)-butyryl]-piperidine-4-carbonyl}-benzoic Acid] | 8.7e-07 M |  | 1.1e-09 M | 6.9e-10 M
